Data set [1] deals with T1, Cyclic nucleotide specific phosphodiesterase (Trypanosoma cruzi) (UniProt Q53I59).
T1 sequence (whole entry): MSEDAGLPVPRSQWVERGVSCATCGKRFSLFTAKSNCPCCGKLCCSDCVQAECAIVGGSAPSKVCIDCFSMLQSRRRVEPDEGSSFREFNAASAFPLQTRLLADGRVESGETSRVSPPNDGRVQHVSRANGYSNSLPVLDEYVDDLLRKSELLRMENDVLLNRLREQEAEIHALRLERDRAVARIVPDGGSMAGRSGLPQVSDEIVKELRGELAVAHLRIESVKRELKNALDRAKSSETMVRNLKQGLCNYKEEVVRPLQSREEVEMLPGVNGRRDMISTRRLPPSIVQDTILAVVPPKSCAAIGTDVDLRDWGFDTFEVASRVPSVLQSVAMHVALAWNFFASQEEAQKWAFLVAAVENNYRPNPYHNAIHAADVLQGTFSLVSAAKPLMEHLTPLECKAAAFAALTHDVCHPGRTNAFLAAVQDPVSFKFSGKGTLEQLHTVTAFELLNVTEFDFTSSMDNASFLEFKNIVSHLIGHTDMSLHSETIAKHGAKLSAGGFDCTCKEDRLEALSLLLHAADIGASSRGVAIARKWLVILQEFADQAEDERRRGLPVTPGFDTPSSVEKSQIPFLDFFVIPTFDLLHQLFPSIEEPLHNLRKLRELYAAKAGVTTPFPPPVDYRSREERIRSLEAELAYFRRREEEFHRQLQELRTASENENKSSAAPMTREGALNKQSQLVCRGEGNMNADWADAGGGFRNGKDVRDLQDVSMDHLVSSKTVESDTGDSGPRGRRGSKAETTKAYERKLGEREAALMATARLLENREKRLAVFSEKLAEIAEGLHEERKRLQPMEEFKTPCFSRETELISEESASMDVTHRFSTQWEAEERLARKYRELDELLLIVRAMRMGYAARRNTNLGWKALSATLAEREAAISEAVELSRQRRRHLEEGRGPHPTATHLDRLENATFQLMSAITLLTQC
The experiment in a line: Inhibition of Trypanosoma cruzi Y PDEC assessed as cAMP accumulation at 4.5 to 45 uM after 1 to 5 mins by luminescence spectrophotometry.

In data set [2] the target is T1, Cyclic nucleotide specific phosphodiesterase (Trypanosoma cruzi). The experiment in a line: Inhibition of Trypanosoma cruzi Y PDEC assessed as cAMP accumulation at 43 uM after 1 to 5 mins by luminescence spectrophotometry.
Data set [3] in a line: Cytotoxicity against rat L6E9 myoblasts at 1 to 25 uM.
In data set [4] the target is T1, Cyclic nucleotide specific phosphodiesterase (Trypanosoma cruzi). Briefly: Inhibition of Trypanosoma cruzi Y PDEC assessed as cAMP accumulation at 26 uM after 1 to 5 mins by luminescence spectrophotometry.
Data set [5] deals with Phosphodiesterase 4 (Homo sapiens, UniProt P27815+Q08499+Q07343+Q08493). Briefly: Inhibition of human PDE4 after 30 mins. It counts as protein assay.
In data set [6] the test system is Trypanosoma cruzi. Briefly: Antimicrobial activity against Trypanosoma cruzi Y infected in rat L6E9 myoblasts assessed as inhibition of [5,6-3H]uracil incorporation after 3 days postinfection by scintillation counter. It counts as functional, organism-based.
For data set [7], the target named is T1, Cyclic nucleotide specific phosphodiesterase (Trypanosoma cruzi). The experiment in a line: Inhibition of Trypanosoma cruzi Y PDEC assessed as cAMP accumulation at 90 uM after 1 to 5 mins by luminescence spectrophotometry.
The target of data set [8] is T2, Cyclic nucleotide specific phosphodiesterase (Trypanosoma cruzi, UniProt Q53I59).
T2 sequence (Q53I59 whole entry): T1 sequence (whole entry)
Briefly: Inhibition of Trypanosoma cruzi Y PDEC after 30 mins.

A short description of data set [9]: Cytotoxicity against rat L6E9 myoblasts at >25 uM.
Data set [10] can be described thus: Cytotoxicity against rat L6E9 myoblasts at >10 uM.
For data set [11], the system named is Trypanosoma cruzi. Briefly: Antimicrobial activity against Trypanosoma cruzi infected in rat L6E9 myoblasts assessed as inhibition of [3H]uracil incorporation by giemsa staining. To be noted: L6E9, 3 h.
Data set [12] in a line: Cytotoxicity against rat L6E9 myoblasts upto 1 uM.
In data set [13] the test system is Trypanosoma cruzi. The experiment in a line: Antimicrobial activity against Trypanosoma cruzi Y infected in L6E9 myoblasts assessed as inhibition of [3H]uracil incorporation at 1 uM after 3 hrs postinfection by scintillation counter. The arrangement: scale not given: the % may be the effect or the level left. The format is functional.
Data set [14] has as its system Trypanosoma cruzi. Briefly: Antimicrobial activity against Trypanosoma cruzi Y infected in L6E9 myoblasts assessed as inhibition of [3H]uracil incorporation at 25 uM after 3 hrs postinfection by scintillation counter. It counts as functional. The arrangement: scale not given: the % may be the effect or the level left.
The target of data set [15] is T1, Cyclic nucleotide specific phosphodiesterase (Trypanosoma cruzi). Briefly: Inhibition of Trypanosoma cruzi Y PDEC assessed as decrease in osmolarity preincubated with 8.7 uM compound measured after 10 mins by light scattering.
For data set [16] the target is unchanged. The experiment in a line: Inhibition of Trypanosoma cruzi Y PDEC assessed as volume recovery preincubated with 8.7 uM compound measured after 10 mins by light scattering.

SMILES strings stand for the structures. The source made the active and inactive calls. The rule behind the calls is not given here.

Regarding `CCCCC(=O)c1ccc(OC2CCOC2)c(OC)c1` (stereo not given), the inhibition entry in data set [1], in data set [2], in data set [4] and in data set [7] was “Active” in each case. Moreover, the Activity entry in data set [3] was “Non-toxic”. The IC50 in data set [5] came out at 100 µM; in data set [6], 1.8 µM; in [8], 5.1 µM.

As for `CCOC(=O)c1csc(COc2ccc(C3SCCS3)cc2)n1`, the Activity entry was “Non-toxic” in [3] and “Toxic” in data set [9]. Moreover, the IC50 in data set [8] was more than 10 µM.

In the case of `CCCCC(=O)c1ccc(OC2CCOCC2)c(OC)c1`, the inhibition result in data set [1], in [2], in data set [4] and in [7] was “Active” in each case. For the same compound, the Activity result in data set [3] was “Non-toxic”. The IC50 is 71 µM in data set [5], 5.2 µM in data set [6] and 3.5 µM in data set [8].

On to `O=S(=O)(Cc1noc(CSc2ccc(Cl)cc2)n1)c1ccccn1`, for which the results for the Activity result in data set [3] and in data set [10] were “Non-toxic” and “Toxic”, respectively. Besides, the IC50 in [8] was more than 10 µM.

Turning to `CSc1noc(-c2ccc(S(=O)(=O)NCc3ccccc3)s2)c1C#N`, the results for the Activity result in [3] and in data set [9] were “Non-toxic” and “Toxic”, respectively. In [8], this compound gave an IC50 of 4.3 µM.

As for `CC1CS(=O)(=O)CCN1/N=C/c1ccc([N+](=O)[O-])o1` (stereo not given) [NIFURTIMOX], the IC50 in data set [11] is 2.8 µM.

`CCCC(=O)c1ccc(OC(F)F)c(OC2CCOCC2)c1`: the inhibition result in data set [1], in data set [2], in data set [4] and in data set [7] was “Active” throughout. Moreover, the Activity result in data set [3] is recorded as “Non-toxic”. For the same compound, the IC50 in data set [5] is 0.35 µM; in data set [6], 1.6 µM; in data set [8] it was 4.8 µM.

`O=C(Nc1csc2ccccc12)NC1Cc2ccccc2C1`: the Activity entry in data set [3] is reported as “Non-toxic”; in data set [9], “Toxic”. For the same compound, the IC50 in data set [8] is more than 10 µM.

Consider `O=S(=O)(Cc1noc(-c2ccno2)n1)Cc1ccco1`, for which the Activity result is recorded as “Non-toxic” in data set [3] and “Toxic” in data set [12]. Further, half-maximal inhibition in data set [8] (IC50) was put at 4.5 µM.

Take `O=C1c2ccccc2C(=O)N1Cc1csc(-c2cccs2)n1`: the Activity stood at 51% in data set [13] and 98% in data set [14]. Also, half-maximal inhibition in data set [8] (IC50) required 4.1 µM.

With `O=C(Cn1nnc(N2CCCC2)n1)N/N=C/c1ccncc1`, the Activity entry is reported as “Non-toxic” in data set [3] and “Toxic” in [10]. Moreover, the IC50 in data set [8] was more than 10 µM.

As for `O=S(=O)(Cc1noc(-c2ccc(Cl)cc2)n1)c1ccccn1`, the Activity result in data set [3] is “Non-toxic”; in data set [12], “Toxic”. This compound came in with an IC50 in data set [8] of 2.4 µM.

Regarding `CCOC(=O)Cc1csc(NC(=O)Nc2ccc(Cl)c(Cl)c2)n1`, the Activity entry in data set [3] was “Non-toxic”; in [12], “Toxic”. Also, the concentration for half-maximal inhibition (IC50) in [8] was found to be 3.6 µM.

With `O=C(Cn1ccnc1[N+](=O)[O-])NCc1ccccc1` [BENZNIDAZOLE], in data set [11], the IC50 was 3.7 µM.

For the compound `O=C(Nc1ccc(S(=O)(=O)N2CCCCC2)cc1)NC1CCCC1`, the Activity result was “Non-toxic” in data set [3] and “Toxic” in data set [12]. Moreover, the IC50 in data set [8] is more than 10 µM.

As for `CCCC(=O)c1ccc(OC2CCN(C(=O)OC(C)(C)C)CC2)c(OC)c1`, the inhibition result in data set [1], in data set [2], in [4] and in data set [7] was “Active” each time. The Activity entry in data set [3] was “Non-toxic”. Besides, the IC50 in data set [5] was determined as 29 µM; in data set [6] it was 3.3 µM; in data set [8] it was 6.5 µM. For the same compound, the inhibition entry in data set [15] and in [16] was “inactive” throughout.

In the case of `O=C(CCC1CCCCC1)c1ccc(OC(F)F)c(OC2CCOC2)c1` (stereo not given), in data set [3], the Activity entry is recorded as “Non-toxic”. Moreover, the IC50 was determined as 1.1 µM in [5], 5.8 µM in data set [6] and 5.3 µM in data set [8].

These data come from ChEMBL document CHEMBL1671721, “Chemical validation of phosphodiesterase C as a chemotherapeutic target in Trypanosoma cruzi, the etiological agent of Chagas' disease” (Antimicrob Agents Chemother, 2010).
